# Laboratory results reported in patent US20250213587A1, “ITK INHIBITORS FOR INCREASING TH1 CELL ACTIVITY” (Corvus Pharmaceuticals, Inc., priority 2022, published 2025).
# Entries after “also recorded” stand apart in the source; their conditions may differ.
# How the values were obtained:
# [1] = system: bleomycin-induced pulmonary fibrosis; test: Bleomycin-induced mouse pulmonary fibrosis model; assay type: in vivo; details: 10 and 30 mg/kg QD, day 7-21
# [2] = system: IL-4 production by CD4+ T cells; test: T cell activation, IL-4+CD4+ T cells; assay type: cell-based, human
# Experimental: Fresh PBMCs from healthy human donors were centrifuged and reconstituted at 0.312×10^6 cells/mL in RPMI 1640 medium+10% heat-inactivated FBS+1× penicillin streptomycin and 100,000 cells/well were distributed into 24 well tissue culture plate. Cells were incubated at 37° C. for 1 hour, followed by the addition of CPI 596 or vehicle. The cells were then incubated at 37° C. for 1 hour, followed by the addition of […] anti CD3 and anti CD28 (both eBioscience). Cells were incubated at 37° C. for 6 days, with supplemental media supplied on day 3. On Day 6, the cells were transferred to a 96 deep well plate, washed, and treated with 50 nM phorbol 12-myristate 13-acetate, 1 μg/mL ionomycin, and 1 μg/mL brefeldin A, and then incubated at 37° C. for 4 hours. The cells were then fixed and permeabilized using eBioscience Fox3/transcription factor staining buffer. Cells were treated with Fc block (BioLegend) and then stained with CD3 BV605, CD45RA PerCP-Cy5.5, Tbet PE, IFNγ AF488, IL-4 APC (BioLegend), CD4 PE-Cy7, cPARP AF700 (BD Biosciences), and CD8 Krome Orange (Beckman Coulter). For flow cytometry, 300,000 cells were acquired on Cytoflex (Beckman Coulter). Data were analyzed using Flowjo software. The percentage of CD4^+ T cells that were positive for IFNγ and IL 4 were reported.
# [3] = system: colitis in C.B-17 SCID mice; test: Mouse T cell adoptive transfer colitis model; assay type: in vivo
# Experimental: To enable long-term dosing in animal studies, a CPI-818-formulated mouse diet (300 mg/kg/day), and a control diet, with macronutrient levels matching the common Teklad 2018 diet were created (Research Diets, Inc.). Adequate drug exposure was confirmed by standard LC-MS method in plasma samples. Female BALB/c mice (11-12 weeks old) and female Fox Chase C.B-17 severe combined immunodeficient (SCID) mice (6-7 weeks old) were purchased from Charles River Laboratories. […] A third group on control diet was treated weekly via intraperitoneal (IP) route with 0.5 mg/mouse of anti-IL-12 p40 (clone C17.8) (BioXcell BE0051). On study day 0, SCID mice were injected IP with 4×10^5 CD4^+CD45RB^hi splenic T cells from BALB/c mice. On study day 48, animals were sacrificed. Colons were harvested for measurements. The distal section was preserved in 10% neutral buffered formalin, embedded into paraffin blocks, and sent to HistoTox Labs, Inc. for histologic analyses. Therapeutic efficacy was based on body weights, colon weights, and colon lengths. This study was carried out at Bolder BioPATH, Inc. in accordance with the test facility standard operating procedures, the World Health Organization Quality Practices in Basic Biomedical Research guidelines, and in compliance with all state and federal regulations.
# Each slide containing 3 cross sections of the distal colon from each animal was stained with hematoxylin and eosin (H&E), or with an anti-CD3 antibody, and evaluated by a board-certified veterinary pathologist blinded to treatment information. Histologic lesions in H&E-stained slides were scored separately for severity 0-5, where 0=absent, 1=minimal, 2=mild, 3=moderate, 4=marked, 5=severe. Anti-CD3-stained slides were scanned using an Aperio AT2 whole slide scanner. Exclusions were applied to remove debris and tissue artifacts from the analyzed area. An algorithm was applied to the samples using Visiopharm (VIS) image analysis software. A count-based thresholding method was utilized to determine positivity of each pixel on the slide. The average of the three colon samples per slide was taken to determine both the number of immunolabeled CD3 cells and the total area of the colon. The output images underwent a quality control check after analysis was complete. CD3-immunolabeled cell density was calculated per 10,000 μm^2 using the following formula: […]
# The body weights over time between two groups of animals were compared using the two-way analysis of variance (2-way ANOVA) method. Organ weights or lengths were compared using a Student's unpaired, two-tailed, t-test with Welch's correction. All statistical analyses were performed using Prism Version 8.3.0 (GraphPad Software).
# [4] = Mouse pharmacokinetics after oral dosing; assay type: in vivo
smiles,measurement,setting,value
C=CC(=O)N1CCCN(C(=O)c2cc(Sc3cnc(NC(=O)C4CC4)s3)c(C)cc2OC)C[C@H]1C [CPI-818],BALF leukocytes,[1],reduced
same,lung weight,[1],reduced
same,IL-4 production,[2]; 10 μM,complete inhibition
same,inhibition at 1 µM,"[2]; Homo sapiens, CD4+ T, 1 μM, average, read-out: inhibition of percentage of CD4+ T cells that produced IL-4",64%
same,"protection from colitis (diarrhea, weight loss)",[3]; diet 300 mg/kg/day from one week before transfer,protected from colitis
same,infiltration of CD3+ T cells in colon,[3]; histology,blocked the infiltration of CD3^+ T cells; also recorded: prevented infiltration of CD3+ T cells
same,severity of histologic lesions,"[3]; inflammation, mucosal necrosis, epithelial hyperplasia, submucosa edema",significantly reduced the severity
same,colon weights and lengths,[3]; necropsy 7 weeks post-transfer,within the ranges of naïve animals
same,Tmax,"[4]; male, C57Bl/6, mouse, plasma, single 50 mg/kg PO",0.5 h
same,half-life,"[4]; male, C57Bl/6, mouse, plasma, single 50 mg/kg PO, read-out: half-life in circulation (converted)",2.4 h
same,oral bioavailability,"[4]; mouse, in vivo, po",orally bioavailable
same,decrease of plasma concentration,"[4]; single 50 mg/kg PO, over first 8 h",10 fold
